Test results taken from patent publication US8946294B2, “Crystalline diacylhydrazine and the use thereof” (Intrexon Corporation, priority 2011, dated 2015).

Columns and labels:
[1] = Solid state stability at 60-65° C.; format: physicochemical; conditions: closed cap vial
Experimental: Compound 1 Form II, Compound 1 Form III, and compound 1 Form IV were stored at 60-65° C. in a closed cap vial for various lengths of time. Compound 1 Forms II and III remained unchanged under these conditions. Compound 1 Form IV is converted to a mixture of Forms II and III after 10 days at 60-65C.

[2] = Solvent-based stability tests in water/methanol; format: physicochemical; conditions: for Relative stability of polymorphic forms: all three temperatures (25, 45, 55° C.); for Form: 6:4 MeOH:water, at least three days
Excerpt: A mixture of Compound 1 Forms II, III, IV, and V was slurried in various compositions of methanol/water, or in water, for at least three days at different temperatures.

[3] = Reinvestigation of Form IX sample by PXRD and FT-Raman; format: physicochemical; conditions: PXRD and FT-Raman spectroscopy
Experimental: 198 mg of Compound 1 Form I-A was dissolved in 0.2 mL acetone and 2.0 mL of cyclohexane. The solution was stirred at 5° C. for 4 hours than evaporated at 5° C. for 2 hours to obtain a precipitate. The precipitate was collected by filtration and dried under vacuum for 1 hour to give Form IX (FIGS. 29 and 30). […] The sample was likely incompletely dried but might also correspond to a cyclohexane solvate.

[4] = Storage under CO2 atmosphere and 75-76% relative humidity; format: physicochemical; conditions: open container, 1 month; for hydrate (Form IV) or CO2 adduct formation: 1 bar CO2, 75-76% relative humidity; for Form after storage: 1 bar CO2, over saturated NaCl solution (75-76% relative humidity)
[5] = Dynamic vapor sorption (DVS) hygroscopicity; format: physicochemical; conditions: for water content gained: from 0% relative humidity to 85% r.h.
Excerpt: Projekt Messtechnik SPS11-100n multi-sample water vapor sorption analyzer or Surface Measurement Systems Ltd. DVS-1 water vapour sorption analyzer. The sample was allowed to equilibrate at 50% r.h. before starting a pre-defined humidity program.
Program: 50% r.h.→0% r.h.→95% r.h.→50% r.h., Δr.h.=5%/h
Hygroscopicity was classified as follows: • deliquescent sufficient water is absorbed to form a liquid • very hygroscopic increase of the mass is ≧15% • hygroscopic increase of the mass is less than 15% and greater than or equal to 2% • slightly hygroscopic increase of the mass is less than 2% and greater than or equal to 0.2% • not hygroscopic increase of the mass is less than 0.2% Thermogravimetry Coupled to Fourier-Transform Infrared Spectroscopy (TG-FTIR): […]

[6] = Mechanical stability (IR press and grinding, PXRD); format: physicochemical; conditions: pressed with 10 metric tons for 30 min; vigorously ground
Experimental: (§1) Two types of experiments elucidated the mechanical stability of Compound 1 Form II. First, about 200 mg of Form II was pressed in an IR press with a force of 10 metric tons (13 mm diameter of pellet) for 30 min. The resulting pellets were analyzed by PXRD. Second, about 150 mg of Form II was vigorously ground and analyzed by PXRD.
as §1, with “1 Form III. First, about” for “1 Form II. First, about”, “of Form III was vigorously” for “of Form II was vigorously”

[7] = Suspension equilibration of Form I-A in non-solvate forming solvents; format: physicochemical; conditions: at 5° C. and room temperature
Experimental: 109 mg of Compound 1 Form I-A was suspended in 2.0 mL of cyclohexane and sonicated. After stirring for 14 days at room temperature, the solid was collected by filtration and dried under vacuum for 30 minutes to give Form III.
105 mg of Compound 1 Form I-A was suspended in 0.7 mL of 3:2 (v/v) n-heptane/toluene and sonicated. After stirring for 16 days at 5° C., the solid was collected by filtration and dried under vacuum for 30 minutes to give Form III.
102 mg of Compound 1 Form I-A was suspended in 0.7 mL of 10:1 (v/v) n-heptane/toluene and sonicated. After stirring for 16 days at 5° C., the solid was collected by filtration and dried under vacuum for 30 minutes to give Form III.
115 mg of Compound 1 Form I-A was suspended in 0.7 mL of 1:10 (v/v) n-heptane/toluene and sonicated. After stirring for 16 days at 5° C., the solid was collected by filtration and dried under vacuum for 30 minutes to give Form III.

[8] = biological target: C. fumiferana EcR (CfEcR-DEF) (Choristoneura fumiferana, UniProt O77240); assay: Cellular gene-switch assay, WT-Cf EcR, luciferase reporter; format: cell-based; conditions: NIH3T3 cells
Experimental: (§2) Cellular gene-switch assays were performed by transfecting the following constructs in mouse embryonic fibroblast cells (NIH3T3). The wild-type D-, E-, and F-domains from a) C. fumiferana EcR (CfEcR-DEF), and b) C. fumiferana EcR with a E274V/V390I/Y410E mutation (VY-CfEcR-DEF), were fused to a GAL4-DBD and placed under the control of the CMV promoter in a pBIND vector (Promega Corporation, Madison, Wis., USA). A chimeric RXR from Homo sapiens RXRb and Locusta migratoria RXR fused to VP16-AD and under the control of an SV40e promoter has previously described. (See, Kothapalli et al., Dev. Genet. 17:319-330 (1995); Palli, et al., FEBS J. 272:5979-5990 (2005); and U.S. Pat. No. 7,935,510 B2). The inducible luciferase reporter plasmid, pFRLuc, (Stratagene Cloning Systems, La Jolla, Calif., USA) contains five copies of the GAL4 response element and a synthetic minimal promoter.
(§3) Under standard assay conditions, Compound 1 was tested at 8 doses from 0.01-33 μM and the final DMSO concentration was 0.33% in both control and treatment wells. When necessary, Compound 1 was tested at lower concentrations. After a 48-hour post-treatment and transfection incubation, the cells were assayed for luciferase activity using the Bright-GloTM Luciferase Assay System (Promega Corporation, Madison, Wis., USA) following the manufacturer's instructions. […]

[9] = biological target: C. fumiferana EcR with a E274V/V390I/Y410E mutation (VY-CfEcR-DEF) (Choristoneura fumiferana, UniProt O77240); assay: Cellular gene-switch assay, VY-Cf EcR, luciferase reporter; format: cell-based; conditions: NIH3T3 cells
Experimental: as §2, §3

[10] = Solvent-based stability tests in n-heptane/ethanol; format: physicochemical; conditions: 95:5 heptane:ethanol
Experimental: Compound 1 Form II, Compound I Form III, or a mixture of Compound 1 Forms II and III were slurried in 95:5 heptane:ethanol (anhydrous). After one day at various temperatures, a portion of the slurry was filtered and analyzed by XRPD. A solution mediated transition occurs at 45-47° C. in 95:5 heptane:ethanol. Below 45° C.

[11] = Solvent-based stability tests in n-heptane/toluene; format: physicochemical; conditions: 3:2 (v/v) n-heptane:toluene, 6 days
Experimental: The thermodynamic stability of Form II and Form III as a function of temperature was investigated by suspension equilibration experiments.
54.6 mg of Compound 1 Form III and 61.2 mg of Compound 1 Form II were suspended in […] of 3:2 (v/v) n-heptane:toluene and sonicated. […] In this experiment the starting material likely took up ambient humidity to give Form IV.
18.5 mg of Compound 1 Form III and 28.0 mg of Compound 1 Form II were suspended in 0.4 mL of 3:2 (v/v) n-heptane:toluene and sonicated. After stirring at 60° C. for 6 days the solid was collected by filtration to give Form II.
35.4 mg of Compound 1 Form III and 46.1 mg of Compound 1 Form II were suspended in 0.4 mL of 3:2 (v/v) n-heptane:toluene and sonicated.
40.5 mg of Compound 1 Form III and 45.7 mg of Compound 1 Form II were suspended in 0.4 mL of 3:2 (v/v) n-heptane:toluene and sonicated. After stirring at 55° C. for 6 days the solid was collected by filtration to give Form II.
The solvent-based experiments are in principle thermodynamic stability tests between Compound 1 Forms II and III because mixtures of both forms were suspended. Below 45° C. […] Above 55° C. […] At 50° C. a mixture of both Form II and Form III was obtained in 3:2 (v/v) n-heptane:toluene. This is not unexpected. Close to the transition temperature, the thermodynamic driving force would be expected to be very small leading to slow transition rates. Possibly the kinetics of transformation were too slow for the transformation to occur on the timescale of the experiment. According to these suspension equilibration experiments, Form II and Form III are enantiotropic polymorphs. The thermodynamic transition temperature between Form II and Form III is between 45° C. and 55° C.

[12] = 48-hour incubation, luciferase activity
[13] = maximum fold induction relative to a positive control

CCC[C@@H](N(NC(=O)c1cccc(OC)c1CC)C(=O)c1cc(C)cc(C)c1)C(C)(C)C [Compound 1 Form IV, (R)-3,5-dimethyl-benzoic acid N-(1-tert-butyl-butyl)-N′-(2-ethyl-3-methoxy-benzoyl)-hydrazide]
Form after storage ([1]; 3 days): II, III, and IV | Form after storage ([1]; 10 days): II and III | Form after storage ([1]; 18 days): II and III | Relative stability of polymorphic forms ([2]; methanol content of less than 60% volume): most stable polymorphic form

CCC[C@@H](N(NC(=O)c1cccc(OC)c1CC)C(=O)c1cc(C)cc(C)c1)C(C)(C)C [Compound 1 Form IX, (R)-3,5-dimethyl-benzoic acid N-(1-tert-butyl-butyl)-N′-(2-ethyl-3-methoxy-benzoyl)-hydrazide]
Form on reinvestigation of the sample [3]: spontaneously transformed into Form II

CCC[C@@H](N(NC(=O)c1cccc(OC)c1CC)C(=O)c1cc(C)cc(C)c1)C(C)(C)C [Compound 1 Form III, (R)-3,5-dimethyl-benzoic acid N-(1-tert-butyl-butyl)-N′-(2-ethyl-3-methoxy-benzoyl)-hydrazide]
hydrate (Form IV) or CO2 adduct formation [4]: no indication of hydrate (Form IV) or CO2 adduct formation | Form after storage [4]: unchanged Form III | Hygroscopicity (DVS) [5]: non- to slightly-hygroscopic | water content gained [5]: 0.1 wt.-% | Change in crystalline form after mechanical treatment (PXRD) [6]: no change in crystalline form | Relative stability of forms [7]: more stable than Form II

CCC[C@@H](N(NC(=O)c1cccc(OC)c1CC)C(=O)c1cc(C)cc(C)c1)C(C)(C)C [Compound 1 Form II, (R)-3,5-dimethyl-benzoic acid N-(1-tert-butyl-butyl)-N′-(2-ethyl-3-methoxy-benzoyl)-hydrazide]
hydrate (Form IV) or CO2 adduct formation [4]: no indication of hydrate (Form IV) or CO2 adduct formation | Form after storage [4]: unchanged Form II | Hygroscopicity (DVS) [5]: non- to slightly-hygroscopic | water content gained [5]: 0.1 wt.-% | Change in crystalline form after mechanical treatment (PXRD) [6]: no change in crystalline form

CCC[C@@H](N(NC(=O)c1cccc(OC)c1CC)C(=O)c1cc(C)cc(C)c1)C(C)(C)C [Compound 1 Form V, (R)-3,5-dimethyl-benzoic acid N-(1-tert-butyl-butyl)-N′-(2-ethyl-3-methoxy-benzoyl)-hydrazide]
Relative stability of polymorphic forms ([2]; methanol content of more than 60% volume): most stable polymorphic form

CCC[C@@H](N(NC(=O)c1cccc(OC)c1CC)C(=O)c1cc(C)cc(C)c1)C(C)(C)C [Compound 1 Forms II, III, IV, and V, (R)-3,5-dimethyl-benzoic acid N-(1-tert-butyl-butyl)-N′-(2-ethyl-3-methoxy-benzoyl)-hydrazide]
Form ([2]; 45° C.): IV and V | Form ([2]; 55° C.): IV and V

CCC[C@@H](N(NC(=O)c1cccc(OC)c1CC)C(=O)c1cc(C)cc(C)c1)C(C)(C)C [Compound 1, (R)-3,5-dimethyl-benzoic acid N-(1-tert-butyl-butyl)-N′-(2-ethyl-3-methoxy-benzoyl)-hydrazide]
EC50 [8, 12]: 1800 pM | Rel Max FI [8, 13]: 0.99 | EC50 [9, 12]: 133 pM | Rel Max FI [9, 13]: 0.88

CCC[C@@H](N(NC(=O)c1cccc(OC)c1CC)C(=O)c1cc(C)cc(C)c1)C(C)(C)C [Compound 1 Forms II and III, (R)-3,5-dimethyl-benzoic acid N-(1-tert-butyl-butyl)-N′-(2-ethyl-3-methoxy-benzoyl)-hydrazide]
solution mediated transition temperature [10]: 45-47 °C | Form obtained ([11]; 45° C.): mixture of Form III and Form IV | Form obtained ([11]; 50° C.): mixture of Form II and Form III | Form obtained ([11]; 55° C.): Form II | Form obtained ([11]; 60° C.): Form II
